In patent US20210346336A1, “FURAN DERIVATIVES AS BROMODOMAIN INHIBITORS” (GlaxoSmithKline Intellectual Property (No.2) Limited, priority 2018, published 2021):

What was measured:
BRD4 BD2 = target: T1, BRD4 BD2 (Homo sapiens, UniProt O60885, Y97A); experiment: BRD4 BD2 TR-FRET competition assay (mutant tandem bromodomain); type: binding; settings: read-out: pIC50 in the BRD4 BD2 assay (converted)
T1 construct: BRD4 (1-477) (Y97A) and (Y390A); made in house; host or cells: E. coli (pET15b vector)
Experimental: Bromodomain binding was assessed utilising a time resolved fluorescent resonance energy transfer (TR-FRET) competition assay. To enable this approach a known, high affinity, pan-BET interacting small molecule was labelled with Alexa Fluor® 647, which is a far-red-fluorescent dye (Reference Compound X). Reference Compound X acts as a reporter of bromodomain binding and is the acceptor fluorophore component of the TR-FRET pair. Europium chelate, conjugated to an anti-6*His antibody, was utilised as the donor fluorophore in the TR-FRET pair. […] A TR-FRET signal is generated when the donor and acceptor fluorophores are in close proximity, between 20-80 Å, which is enabled in this assay by binding of Reference Compound X to the bromodomain protein.
Assay Principle: In order to generate a TR-FRET signal, donor fluorophore is excited by a laser at λ337 nm, which subsequently leads to emission at λ618 nm. If the acceptor fluorophore is in close proximity then energy transfer can occur, which leads to emission of Alexa Fluor® 647 at λ665 nm. In the presence of competitor compound, Reference Compound X can be displaced from binding to the bromodomain. If displacement occurs, the acceptor fluorophore is no longer in proximity to the donor fluorophore, which prevents fluorescent energy transfer and, subsequently, a loss of Alexa Fluor®647 emission at λ665 nm.
(§1) The competition of the compounds of formula (I) with Reference Compound X for binding to the BET family (BRD2, BRD3, BRD4 and BRDT) was assessed using protein truncates spanning both bromodomain 1 (BD1) and bromodomain 2 (BD2). In order to monitor differential binding to either BD1 or BD2, single residue mutations of key tyrosines to alanine were made in the acetyl lysine binding pockets. To validate this approach, a double residue mutant tandem domain protein was produced for each of the BET family members. Utilising a Fluorescence Polarisation approach, binding affinities for each of the single and double mutants for Reference Compound X were determined.
Final purification was completed by Superdex 200 prep grade size exclusion column. Purified protein was stored at −80° C. in 20 mM HEPES pH 7.5 and 100 mM NaCl.
Protocol for Bromodomain BRD2, 3, 4 and T, BD1+BD2 mutant TR-FRET competition assays: All assay components were dissolved in an assay buffer composing of 50 mM HEPES pH7.4, 50 mM NaCl, 5% Glycerol, 1 mM DTT and 1 mM CHAPS. […] The solution containing bromodomain and Reference Compound X was added to dose response dilutions of test compound or DMSO vehicle (a maximum of 0.5% DMSO is used in this assay) in Greiner 384 well black low volume microtitre plates and subsequently incubated for 30 minutes at rt. An equal volume of 3 nM of anti-6*His Europium chelate was added to all wells, followed by a further 30 minute incubation at rt. TR-FRET was detected using a Perkin Elmer Multimode plate reader, by exciting the donor fluorophore at λ337 nm and subsequently, after a delay of 50 μsecs, measuring emission of the donor and acceptor fluorophores at λ615 nm and λ665 nm, respectively. In order to control these assays, 16 replicates each of uninhibited (DMSO vehicle) and inhibited (10*IC50 concentrations of Example 11 of WO 2011/054846A1) TR-FRET assays were included on every microtitre plate.
cA four parameter curve fit of the following form was then applied:
y=a+((b−a)/(1+(10^x/10^c)^d) • Where ‘a’ is the minimum, ‘b’ is the […], ‘c’ is the pIC50 and ‘d’ is the […].
Those of skill in the art will recognise that in vitro binding assays and cell-based assays for functional activity are subject to experimental variability. Accordingly, it is to be understood that the pIC50 values given below are exemplary only. pIC50 values are expressed as log10 units.

[1] = tested on: BET family (BRD2, BRD3, BRD4 and BRDT) tandem bromodomain proteins; experiment: Fluorescence Polarisation binding of Reference Compound X to single and double mutant tandem BET proteins; set-up: species or system Human
Experimental: as §1, with “determined. […] The affinities of the single mutated bromdomain tandem proteins for Reference Compound X were equi-potent with the corresponding non-mutated BET protein. […] In the TR-FRET competition assay, Reference Compound X is used at a concentration that is equivalent to the Kd for the non-mutated bromodomain, which ensures that no binding at the mutated bromodomain is detected.” for “determined.”
Protein production: Recombinant Human Bromodomains [(BRD2 (1-473) (Y113A) and (Y386A), BRD3 (1-435) (Y73A) and (Y348A) BRD4 (1-477) (Y97A) and (Y390A) and BRDT (1-397) (Y66A) and (Y309A)] were expressed in E. coli cells (in pET15b vector for BRD2/3/4 and in pET28a vector for BRDT) with a 6-His tag at the N-terminal. The His-tagged Bromodomain pellet was resuspended in 50 mM HEPES (pH7.5), 300 mM NaCl, 10 mM imidazole & 1 μL/mL protease inhibitor cocktail and extracted from the E. coli cells using sonication and purified using a nickel sepharose high performance column, the proteins were washed and then eluted with a linear gradient of 0-500 mM imidazole with buffer 50 mM HEPES (pH7.5), 150 mM NaCl, 500 mM imidazole, over 20 column volumes. Final purification was completed by Superdex 200 prep grade size exclusion column. Purified protein was stored at −80° C. in 20 mM HEPES pH 7.5 and 100 mM NaCl. Protein identity was confirmed by peptide mass fingerprinting and predicted molecular weight confirmed by mass spectrometry.

Compound	IC50 (BRD4 BD2)	other results
CNC(=O)c1cc(C(=O)N[C@H]2CC[C@H](O)CC2)c([C@@H](C)c2ccc(OC)c(Cl)c2)o1 (single isomer, unassigned) [Example 95, 5-((S*)-1-(3-Chloro-4-methoxyphenyl)ethyl)-N^4-((1r,4S)-4-hydroxycyclohexyl)-N^2-methylfuran-2,4-dicarboxamide]	1 to 10 µM	–
COc1ccc2c(c1)C(c1ccc(Cl)cc1)=N[C@@H](CC(=O)NCCCCCNC(=O)CCCCCC1(C)/C(=C/C=C/C=C/C3=[N+](CCCCS(=O)(=O)O)c4ccc(S(=O)(=O)O)cc4C3(C)C)N(CCCCS(=O)(=O)[O-])c3ccc(S(=O)(=O)O)cc31)c1nnc(C)n1-2 (stereo partly drawn) [Reference Compound X]	–	affinities of the single mutated bromdomain tandem proteins ([1]; compared with the corresponding non-mutated BET protein): equi-potent; reduction in Kd ([1]; double mutant tandem proteins in comparison to non mutated, wild type tandem BET proteins): > 1000 fold; reduction of the Kd of the interaction between the mutated bromodomain and Reference Compound X ([1]; single mutations of Tyrosine to Alanine): > 1000 fold
CNC(=O)c1cc(C(=O)N[C@H]2[C@@H]3COC[C@@H]32)c([C@H](C)c2cccc(Cl)c2)o1 (single isomer, unassigned) [Example 89, N^4-((1R,5S,6r)-3-Oxabicyclo[3.1.0]hexan-6-yl)-5-((R*)-1-(3-chlorophenyl)ethyl)-N^2-methylfuran-2,4-dicarboxamide]	1 to 10 µM	–
CNC(=O)c1cc(C(=O)N[C@H]2CC[C@H](O)CC2)c([C@@H](C)c2ccc(OC)c(OC)c2)o1 (single isomer, unassigned) [Example 106, 5-((S*)-1-(3,4-Dimethoxyphenyl)ethyl)-N^4-((1r,4S)-4-hydroxycyclohexyl)-N^2-methylfuran-2,4-dicarboxamide]	1 to 10 µM	–
CNC(=O)c1cc(C(=O)N[C@H]2CC[C@H](O)CC2)c([C@@H](OC)c2ccccc2)o1 (single isomer, unassigned) [Example 108, N^4-((1r,4S)-4-Hydroxycyclohexyl)-5-((S*)-methoxy(phenyl)methyl)-N^2-methylfuran-2,4-dicarboxamide]	1 to 10 µM	–
CNC(=O)c1cc(C(=O)N[C@H]2[C@@H]3COC[C@@H]32)c([C@H](CC#N)c2cccc(Cl)c2)o1 (single isomer, unassigned) [Example 88, N^4-((1R,5S,6r)-3-Oxabicyclo[3.1.0]hexan-6-yl)-5-((R*)-1-(3-chlorophenyl)-2-cyanoethyl)-N^2-methylfuran-2,4-dicarboxamide]	1 to 10 µM	–
CNC(=O)c1cc(C(=O)NCC2CC2)c([C@@H](C)c2ccccc2)o1 [Example 104, (S)-N^4-(Cyclopropylmethyl)-N^2-methyl-5-(1-phenylethyl)furan-2,4-dicarboxamide]	1 to 10 µM	–
CNC(=O)c1cc(C(=O)N[C@H]2CC[C@H](O)CC2)c([C@@H](CO)c2ccccc2)o1 (single isomer, unassigned) [Example 101, 5-((R*)-2-Hydroxy-1-phenylethyl)-N^4-((1r,4R)-4-hydroxycyclohexyl)-N^2-methylfuran-2,4-dicarboxamide]	1 to 10 µM	–
CNC(=O)c1cc(C(=O)N[C@H]2CC[C@H](O)CC2)c([C@@H](C)c2cc(Cl)cc(OC)c2)o1 (single isomer, unassigned) [Example 94, 5-((S*)-1-(3-Chloro-5-methoxyphenyl)ethyl)-N^4-((1r,4S)-4-hydroxycyclohexyl)-N^2-methylfuran-2,4-dicarboxamide]	1 to 10 µM	–
CNC(=O)c1cc(C(=O)N[C@H]2CC[C@H](O)CC2)c([C@@H](C)c2ccc(C)c(Cl)c2)o1 (single isomer, unassigned) [Example 98, 5-((S*)-1-(3-Chloro-4-methylphenyl)ethyl)-N^4-((1r,4S)-4-hydroxycyclohexyl)-N^2-methylfuran-2,4-dicarboxamide]	1 to 10 µM	–
CNC(=O)c1cc(C(=O)N[C@H]2C[C@@H]2C)c(C(C)c2ccccc2)o1 (single isomer, unassigned) [Example 96, N^2-methyl-N^4-((1S,2S)-2-Methylcyclopropyl)-5-((S*)-1-phenylethyl)furan-2,4-dicarboxamide]	1 to 10 µM	–
CNC(=O)c1cc(C(=O)N[C@H]2CC[C@H](O)CC2)c([C@@H](OC)c2cccc(Cl)c2)o1 (single isomer, unassigned) [Example 93, 5-((S*)-(3-Chlorophenyl)(methoxy)methyl)-N^4-((1r,4S)-4-hydroxycyclohexyl)-N^2-methylfuran-2,4-dicarboxamide]	1 to 10 µM	–
CNC(=O)c1cc(C(=O)N[C@H]2CC[C@H](O)CC2)c([C@@H](C)c2ccc(OC)cc2)o1 (single isomer, unassigned) [Example 102, N^4-((1r,4S)-4-Hydroxycyclohexyl)-5-((S*)-1-(4-methoxyphenyl)ethyl)-N^2-methylfuran-2,4-dicarboxamide]	1 to 10 µM	–
